Laboratory results reported in paper PMC8305076, “Comprehensive Evaluation of Biological Effects of Pentathiepins on Various Human Cancer Cell Lines and Insights into Their Mode of Action” (International Journal of Molecular Sciences, 2021).

Tests used:
Type in all cases: cell-based, human
seven cancer cell lines [1] = assay: DCFDA flow cytometric ROS assay, acute; set-up: key: no impact (0); weak impact (+); strong impact (++); conditions: summary grade
Procedure: According to the hypothesized mechanism of action (see Figure 3), pentathiepins can create oxidative stress via generation of reactive sulfur precursors. We have previously reported that a representative pentathiepin can increase the intracellular levels of ROS in two cancer cell lines. This effect was thus further evaluated with the new compounds in seven cell lines (Figure 8). The cells were incubated for 15 min with 25.0 µM pentathiepin and subsequently analyzed by using the intracellular ROS sensor 2′,7′-dichlorodihydrofluorescein diacetate (DCFDA) by flow cytometry.
In order to quantify intracellular ROS, we performed a flow cytometric assay based on the ROS-sensor 2′,7′-dichlorofluorescein diacetate (DCFDA). For acute effects of pentathiepins on intracellular ROS levels, the cells were stained with DCFDA first and subsequently incubated with 25 µM of compound for 10 min. […] Per condition, 250,000 cells were seeded in 2 mL of medium per well of a 6-well plate and allowed to adhere overnight. For measurement of acute ROS, the cells were stained with 1 mL of a 20 µM DCFDA-PBS solution for 30 min under standard incubation conditions. Afterwards, the solution was discarded, and the monolayer washed twice with 1 mL of PBS before 3 mL of medium containing 25 µM of pentathiepin was added for 10 min at 37 °C. After removing the solution and washing again with PBS, the cells were detached by using 0.5 mL of a diluted trypsin/EDTA-PBS solution (25%) and harvested with 1 mL of culture medium by carefully rinsing the wells. The cell suspension was transferred to 1.5 mL tubes, centrifuged for 5 min at 500× g, and washed with 1 mL of PBS. After removing the supernatant, each pellet was resuspended in 0.5 mL of PBS for measurement via the MACSquant Analyzer 10 at λEx/Em = 488/530 nm. Relative ROS levels resulting from treatment with pentathiepin were calculated by relating the fluorescence intensity of treated samples to the negative control. For the experiments covering periods of 24 and 48 h, the cells were incubated with the compounds first and stained with DCFDA afterwards. To assess the influence of additional GSH, we included 3 or 30 µM GSH to the medium containing 25 µM of pentathiepin, and the protocol was followed as described.

DanG = assay: cell cycle analysis (PI staining); conditions: IC90, 24 and 48 h (Figure 19a)
Procedure: (§1) The potent cytotoxicity and the potential to inhibit the proliferation of cancer cells accompanied by DNA damage effects raised the question as to whether cell cycle progression might be affected as a result of treatment with pentathiepins.
(§2) Cells were harvested by trypsinization, collected in 1.5 mL tubes, and washed twice with PBS by centrifuging for 5 min at 500× g and discarding the supernatant after every step. For fixation, 500 µL of ice-cold ethanol (70%) was added dropwise under vortexing with a subsequent incubation on ice for 30 min. Then, the cells were centrifuged for 10 min at 4000 rpm and 4 °C, the supernatant was removed, and the cells were resuspended in 500 µL of PBS containing 25 µg/mL of PI and 100 µg/mL of RNase. The staining solution was incubated for 30 min, and the cell suspension was measured at λEx/Em = 488/655–730 nm using a MACSquant Analyzer 10 (Miltenyi Biotec, Teterow, Germany).

HAP-1.KO.GPx1 = assay: cell cycle analysis (PI staining); conditions: IC90, 24 h
Procedure: as §1, §2

HAP-1 = assay: cell cycle analysis (PI staining); conditions: IC90, 24 h
Procedure: as §1, §2

seven cancer cell lines [2] = assay: cell cycle analysis (summary); set-up: key: no impact (0); weak impact (+); strong impact (++); conditions: summary grade
Procedure: as §1, §2

SMILES	ROS induction (seven cancer cell lines [1])	decrease of G0/G1-phase cells (DanG)	increase of cells in G2/M-phase (DanG) [%]	increase of cells in sub G1-phase (DanG) [%]	increase of cells in G2/M-phase (HAP-1.KO.GPx1)	increase of cells in sub G1-phase (HAP-1.KO.GPx1)	increase of cells in G2/M-phase (HAP-1)	increase of cells in sub G1-phase (HAP-1)	G0/G1 arrest (seven cancer cell lines [2])	G2/M arrest (seven cancer cell lines [2])	cell cycle distribution vs control (DanG)
CCOc1c2c(c3ccc(C(=O)N(CC)CC)cn13)SSSSS2 [Compound 4, 6-Ethoxy-N,N’-diethyl-[1,2,3,4,5]pentathiepino[6,7-a]indolizine-9-carboxamide]	++	roughly 15%	6	8	≤ 30%	up to 10%	≤ 30%	up to 10%	0	+	–
CCOc1c2c(c3ccc(C(=O)N4CCN(S(=O)(=O)c5ccc(C)cc5)CC4)cn13)SSSSS2 [Compound 6, (6-Ethoxy-[1,2,3,4,5]pentathiepino[6,7-a]indolizin-9-yl)(4-tosylpiperazinyl)methanone]	+	–	–	–	No such effects were detected	–	No such effects were detected	–	+	0	caused no differences from a normal cell cycle
CCOc1c2c(c3ccc(C(=O)N4CCCCC4)cn13)SSSSS2 [Compound 2, (6-Ethoxy-[1,2,3,4,5]pentathiepino[6,7-a]indolizin-9-yl)(piperidinyl)methanone]	++	roughly 15%	6	8	≤ 30%	up to 10%	≤ 30%	up to 10%	0	+	–
CCOc1c2c(c3ccc(C(=O)N4CCN(C(=O)c5ccc(F)cc5)CC4)cn13)SSSSS2 [Compound 5, (6-Ethoxy-[1,2,3,4,5]pentathiepino[6,7-a]indolizin-9-yl)(4-(4-fluorobenzoyl)piperazinyl)methanone]	++	roughly 15%	6	8	≤ 30%	up to 10%	≤ 30%	up to 10%	0	+	–
CCOc1c2c(c3ccc(C(=O)N4CCOCC4)cn13)SSSSS2 [Compound 3, (6-Ethoxy-[1,2,3,4,5]pentathiepino[6,7-a]indolizin-9-yl)(morpholino)methanone]	++	roughly 15%	6	8	≤ 30%	up to 10%	≤ 30%	up to 10%	0	+	–
CCOc1c2c(c3cnc4[nH]c(-c5ccc(OC)cc5)cc4n13)SSSSS2 [Compound 1, 11-Ethoxy-2-(4-methoxyphenyl)-3H-[1,2,3,4,5]pentathiepino[6′,7′:3,4]pyrrolo[1,2-a]pyrrolo[2,3-e]pyrazine]	0	–	–	–	No such effects were detected	–	No such effects were detected	–	+	0	caused no differences from a normal cell cycle
